Source: ChEMBL document CHEMBL4507273 (2021)
pKi: −log10 of the molar value.

Key:
[1] = molecular target: Megakaryocyte-associated tyrosine-protein kinase (Homo sapiens) (UniProt P42679); details: Compound concentration 1000.0 nM
[2] = molecular target: G protein-coupled receptor kinase 4 (Homo sapiens) (UniProt P32298); details: Compound concentration 1000.0 nM
[3] = molecular target: Ribosomal protein S6 kinase alpha-6 (Homo sapiens) (UniProt Q9UK32); details: Compound concentration 1000.0 nM
[4] = molecular target: Dual specificity mitogen-activated protein kinase kinase 3 (Homo sapiens) (UniProt P46734); details: Compound concentration 1000.0 nM
[5] = molecular target: Serine/threonine-protein kinase PAK 2 (Homo sapiens) (UniProt Q13177); details: Compound concentration 1000.0 nM
[6] = molecular target: 5-hydroxytryptamine receptor 2A (Homo sapiens, UniProt P28223); assay: GPCRScan assay: inhibition of 5-HT2A; design: radioligand conc. used [nm] 1.2 – 2.4, parental cells HEKT; details: for pKi: read-out: Ki
[7] = molecular target: BDNF/NT-3 growth factors receptor (Homo sapiens) (UniProt Q16620); details: Compound concentration 1000.0 nM
[8] = molecular target: Serine/threonine-protein kinase NLK (Homo sapiens) (UniProt Q9UBE8); details: Compound concentration 1000.0 nM
[9] = molecular target: Mitogen-activated protein kinase kinase kinase 20 (Homo sapiens) (UniProt Q9NYL2); details: Compound concentration 1000.0 nM
[10] = molecular target: Cyclin-dependent kinase 15 (Homo sapiens) (UniProt Q96Q40); details: Compound concentration 1000.0 nM
[11] = molecular target: Macrophage-stimulating protein receptor (Homo sapiens) (UniProt Q04912); details: Compound concentration 1000.0 nM
[12] = molecular target: Serine/threonine-protein kinase Nek5 (Homo sapiens) (UniProt Q6P3R8); details: Compound concentration 1000.0 nM
[13] = molecular target: 1-phosphatidylinositol 3-phosphate 5-kinase (Homo sapiens) (UniProt Q9Y2I7); details: Compound concentration 1000.0 nM
[14] = molecular target: Calcium/calmodulin-dependent protein kinase type 1 (Homo sapiens) (UniProt Q14012); details: Compound concentration 1000.0 nM
[15] = molecular target: Phosphatidylinositol 4,5-bisphosphate 3-kinase catalytic subunit gamma isoform (Homo sapiens) (UniProt P48736); details: Compound concentration 1000.0 nM
[16] = molecular target: Phosphatidylinositol 5-phosphate 4-kinase type-2 gamma (Homo sapiens) (UniProt Q8TBX8); details: Compound concentration 1000.0 nM
[17] = molecular target: Casein kinase I isoform gamma-2 (Homo sapiens) (UniProt P78368); details: Compound concentration 1000.0 nM
[18] = test system: Tyrosine-protein kinase ABL1 (Homo sapiens), P00519 [H396P]; details: Compound concentration 1000.0 nM
D(3) dopamine receptor = D(3) dopamine receptor (Homo sapiens, UniProt P35462); assay: GPCRScan assay: inhibition of D3; design: radioligand conc. used [nm] 0.5 – 1.8, parental cells HEKT
[19] = molecular target: Myosin light chain kinase family member 4 (Homo sapiens) (UniProt Q86YV6); details: Compound concentration 1000.0 nM
[20] = molecular target: Cyclin-dependent kinase 18 (Homo sapiens) (UniProt Q07002); details: Compound concentration 1000.0 nM
[21] = molecular target: Tyrosine-protein kinase receptor UFO (Homo sapiens) (UniProt P30530); details: Compound concentration 1000.0 nM
[22] = molecular target: T1, Alpha-2A adrenergic receptor (Homo sapiens) (UniProt P08913); details: Compound concentration 10.0 uM
T1 sequence (whole entry): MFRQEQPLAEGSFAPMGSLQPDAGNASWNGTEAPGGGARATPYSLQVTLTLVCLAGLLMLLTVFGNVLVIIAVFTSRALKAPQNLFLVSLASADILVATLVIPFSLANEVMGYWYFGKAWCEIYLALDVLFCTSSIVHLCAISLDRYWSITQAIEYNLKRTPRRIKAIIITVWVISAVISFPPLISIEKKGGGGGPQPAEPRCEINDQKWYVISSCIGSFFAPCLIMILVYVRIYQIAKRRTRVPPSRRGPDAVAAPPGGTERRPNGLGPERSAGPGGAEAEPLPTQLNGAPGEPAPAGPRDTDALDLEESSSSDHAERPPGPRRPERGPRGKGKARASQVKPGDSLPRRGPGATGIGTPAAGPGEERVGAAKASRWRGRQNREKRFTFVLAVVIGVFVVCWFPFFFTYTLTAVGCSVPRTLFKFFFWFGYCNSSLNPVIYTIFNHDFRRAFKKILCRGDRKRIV

[23] = molecular target: NUAK family SNF1-like kinase 1 (Homo sapiens) (UniProt O60285); details: Compound concentration 1000.0 nM
[24] = test system: Epidermal growth factor receptor (Homo sapiens), P00533 [UNDEFINED MUTATION]; details: Compound concentration 1000.0 nM
[25] = molecular target: Tyrosine-protein kinase ABL2 (Homo sapiens) (UniProt P42684); details: Compound concentration 1000.0 nM
[26] = test system: Mast/stem cell growth factor receptor Kit (Homo sapiens), P10721 [L576P]; details: Compound concentration 1000.0 nM
[27] = molecular target: Fibroblast growth factor receptor 4 (Homo sapiens) (UniProt P22455); details: Compound concentration 1000.0 nM
[28] = molecular target: Serine/threonine-protein kinase MRCK gamma (Homo sapiens) (UniProt Q6DT37); details: Compound concentration 1000.0 nM
[29] = molecular target: Serine/threonine-protein kinase DCLK1 (Homo sapiens) (UniProt O15075); details: Compound concentration 1000.0 nM
[30] = molecular target: Tyrosine-protein kinase Fes/Fps (Homo sapiens) (UniProt P07332); details: Compound concentration 1000.0 nM
[31] = molecular target: Serine/threonine-protein kinase LATS2 (Homo sapiens) (UniProt Q9NRM7); details: Compound concentration 1000.0 nM
[32] = molecular target: Phosphatidylinositol 4-phosphate 3-kinase C2 domain-containing subunit beta (Homo sapiens) (UniProt O00750); details: Compound concentration 1000.0 nM
[33] = molecular target: Serine/threonine-protein kinase ULK1 (Homo sapiens) (UniProt O75385); details: Compound concentration 1000.0 nM
[34] = molecular target: Mitogen-activated protein kinase 11 (Homo sapiens) (UniProt Q15759); details: Compound concentration 1000.0 nM
[35] = molecular target: Cyclin-dependent kinase-like 2 (Homo sapiens) (UniProt Q92772); details: Compound concentration 1000.0 nM
[36] = molecular target: Macrophage colony-stimulating factor 1 receptor (Homo sapiens) (UniProt P07333); details: Compound concentration 1000.0 nM
[37] = molecular target: Phosphatidylinositol 4-phosphate 5-kinase type-1 alpha (Homo sapiens) (UniProt Q99755); details: Compound concentration 1000.0 nM

5-hydroxytryptamine receptor 2A, sequence (P28223 whole entry): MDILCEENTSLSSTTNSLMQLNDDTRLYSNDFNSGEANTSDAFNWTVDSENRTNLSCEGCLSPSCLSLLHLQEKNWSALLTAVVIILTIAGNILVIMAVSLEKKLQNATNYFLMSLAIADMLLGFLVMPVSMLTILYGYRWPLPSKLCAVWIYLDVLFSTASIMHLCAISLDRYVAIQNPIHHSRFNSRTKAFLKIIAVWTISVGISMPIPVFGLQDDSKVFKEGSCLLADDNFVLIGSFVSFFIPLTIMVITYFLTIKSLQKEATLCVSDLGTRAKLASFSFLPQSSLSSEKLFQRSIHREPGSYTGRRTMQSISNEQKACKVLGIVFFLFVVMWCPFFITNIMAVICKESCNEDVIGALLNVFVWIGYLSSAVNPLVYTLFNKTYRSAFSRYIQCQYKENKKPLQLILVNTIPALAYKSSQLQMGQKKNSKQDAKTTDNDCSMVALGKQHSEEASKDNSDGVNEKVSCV
Calcium/calmodulin-dependent protein kinase type 1 (Homo sapiens), sequence (Q14012 whole entry, looked up, canonical isoform): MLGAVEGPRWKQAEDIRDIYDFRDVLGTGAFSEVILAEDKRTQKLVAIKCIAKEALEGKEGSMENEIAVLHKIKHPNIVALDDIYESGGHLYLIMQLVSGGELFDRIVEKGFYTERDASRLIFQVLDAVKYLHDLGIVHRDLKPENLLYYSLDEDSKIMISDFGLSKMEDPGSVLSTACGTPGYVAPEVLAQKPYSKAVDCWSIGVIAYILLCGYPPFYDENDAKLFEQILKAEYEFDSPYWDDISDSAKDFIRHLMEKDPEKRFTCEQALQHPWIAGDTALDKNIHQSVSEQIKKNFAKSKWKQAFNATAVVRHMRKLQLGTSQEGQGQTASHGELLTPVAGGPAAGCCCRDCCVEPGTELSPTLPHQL
Serine/threonine-protein kinase ULK1 (Homo sapiens), sequence (O75385 whole entry): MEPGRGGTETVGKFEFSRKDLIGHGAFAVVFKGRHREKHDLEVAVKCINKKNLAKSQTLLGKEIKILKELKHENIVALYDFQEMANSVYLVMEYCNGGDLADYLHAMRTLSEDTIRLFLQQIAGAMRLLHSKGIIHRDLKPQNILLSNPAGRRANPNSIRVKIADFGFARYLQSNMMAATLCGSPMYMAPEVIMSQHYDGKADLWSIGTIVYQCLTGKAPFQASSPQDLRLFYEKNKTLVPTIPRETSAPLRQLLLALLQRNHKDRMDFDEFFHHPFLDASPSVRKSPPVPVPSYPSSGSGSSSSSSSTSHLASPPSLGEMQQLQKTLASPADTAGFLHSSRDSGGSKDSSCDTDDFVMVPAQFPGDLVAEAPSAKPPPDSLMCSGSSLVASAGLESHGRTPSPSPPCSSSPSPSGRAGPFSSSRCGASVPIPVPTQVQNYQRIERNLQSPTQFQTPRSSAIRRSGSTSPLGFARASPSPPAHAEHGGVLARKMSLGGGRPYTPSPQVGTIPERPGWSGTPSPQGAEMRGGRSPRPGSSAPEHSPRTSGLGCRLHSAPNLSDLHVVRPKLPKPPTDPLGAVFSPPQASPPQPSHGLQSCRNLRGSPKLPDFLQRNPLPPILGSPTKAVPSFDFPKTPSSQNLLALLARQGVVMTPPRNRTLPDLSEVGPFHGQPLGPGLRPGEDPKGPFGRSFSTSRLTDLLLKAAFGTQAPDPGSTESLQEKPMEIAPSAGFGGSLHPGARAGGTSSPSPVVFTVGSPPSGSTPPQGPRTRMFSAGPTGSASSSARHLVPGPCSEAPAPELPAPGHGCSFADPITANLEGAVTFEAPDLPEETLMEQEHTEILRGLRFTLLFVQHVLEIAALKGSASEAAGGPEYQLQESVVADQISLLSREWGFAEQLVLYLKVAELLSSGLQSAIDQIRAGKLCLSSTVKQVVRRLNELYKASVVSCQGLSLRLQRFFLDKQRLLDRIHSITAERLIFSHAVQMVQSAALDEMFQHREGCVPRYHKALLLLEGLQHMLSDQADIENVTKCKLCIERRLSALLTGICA
Casein kinase I isoform gamma-2 (Homo sapiens), sequence (P78368 whole entry, looked up, canonical isoform): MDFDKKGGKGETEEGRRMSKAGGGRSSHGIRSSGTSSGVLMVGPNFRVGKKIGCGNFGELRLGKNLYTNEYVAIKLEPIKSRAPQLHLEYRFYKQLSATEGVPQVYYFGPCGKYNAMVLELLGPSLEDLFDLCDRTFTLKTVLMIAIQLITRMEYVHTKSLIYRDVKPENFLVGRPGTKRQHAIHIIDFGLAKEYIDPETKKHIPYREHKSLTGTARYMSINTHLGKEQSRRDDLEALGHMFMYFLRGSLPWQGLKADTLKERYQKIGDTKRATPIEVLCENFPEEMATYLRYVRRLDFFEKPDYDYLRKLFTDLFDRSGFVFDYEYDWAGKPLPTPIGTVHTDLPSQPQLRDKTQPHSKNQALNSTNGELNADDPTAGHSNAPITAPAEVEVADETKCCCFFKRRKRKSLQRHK
Phosphatidylinositol 4-phosphate 3-kinase C2 domain-containing subunit beta (Homo sapiens), sequence (O00750 whole entry, the tested form may be a part): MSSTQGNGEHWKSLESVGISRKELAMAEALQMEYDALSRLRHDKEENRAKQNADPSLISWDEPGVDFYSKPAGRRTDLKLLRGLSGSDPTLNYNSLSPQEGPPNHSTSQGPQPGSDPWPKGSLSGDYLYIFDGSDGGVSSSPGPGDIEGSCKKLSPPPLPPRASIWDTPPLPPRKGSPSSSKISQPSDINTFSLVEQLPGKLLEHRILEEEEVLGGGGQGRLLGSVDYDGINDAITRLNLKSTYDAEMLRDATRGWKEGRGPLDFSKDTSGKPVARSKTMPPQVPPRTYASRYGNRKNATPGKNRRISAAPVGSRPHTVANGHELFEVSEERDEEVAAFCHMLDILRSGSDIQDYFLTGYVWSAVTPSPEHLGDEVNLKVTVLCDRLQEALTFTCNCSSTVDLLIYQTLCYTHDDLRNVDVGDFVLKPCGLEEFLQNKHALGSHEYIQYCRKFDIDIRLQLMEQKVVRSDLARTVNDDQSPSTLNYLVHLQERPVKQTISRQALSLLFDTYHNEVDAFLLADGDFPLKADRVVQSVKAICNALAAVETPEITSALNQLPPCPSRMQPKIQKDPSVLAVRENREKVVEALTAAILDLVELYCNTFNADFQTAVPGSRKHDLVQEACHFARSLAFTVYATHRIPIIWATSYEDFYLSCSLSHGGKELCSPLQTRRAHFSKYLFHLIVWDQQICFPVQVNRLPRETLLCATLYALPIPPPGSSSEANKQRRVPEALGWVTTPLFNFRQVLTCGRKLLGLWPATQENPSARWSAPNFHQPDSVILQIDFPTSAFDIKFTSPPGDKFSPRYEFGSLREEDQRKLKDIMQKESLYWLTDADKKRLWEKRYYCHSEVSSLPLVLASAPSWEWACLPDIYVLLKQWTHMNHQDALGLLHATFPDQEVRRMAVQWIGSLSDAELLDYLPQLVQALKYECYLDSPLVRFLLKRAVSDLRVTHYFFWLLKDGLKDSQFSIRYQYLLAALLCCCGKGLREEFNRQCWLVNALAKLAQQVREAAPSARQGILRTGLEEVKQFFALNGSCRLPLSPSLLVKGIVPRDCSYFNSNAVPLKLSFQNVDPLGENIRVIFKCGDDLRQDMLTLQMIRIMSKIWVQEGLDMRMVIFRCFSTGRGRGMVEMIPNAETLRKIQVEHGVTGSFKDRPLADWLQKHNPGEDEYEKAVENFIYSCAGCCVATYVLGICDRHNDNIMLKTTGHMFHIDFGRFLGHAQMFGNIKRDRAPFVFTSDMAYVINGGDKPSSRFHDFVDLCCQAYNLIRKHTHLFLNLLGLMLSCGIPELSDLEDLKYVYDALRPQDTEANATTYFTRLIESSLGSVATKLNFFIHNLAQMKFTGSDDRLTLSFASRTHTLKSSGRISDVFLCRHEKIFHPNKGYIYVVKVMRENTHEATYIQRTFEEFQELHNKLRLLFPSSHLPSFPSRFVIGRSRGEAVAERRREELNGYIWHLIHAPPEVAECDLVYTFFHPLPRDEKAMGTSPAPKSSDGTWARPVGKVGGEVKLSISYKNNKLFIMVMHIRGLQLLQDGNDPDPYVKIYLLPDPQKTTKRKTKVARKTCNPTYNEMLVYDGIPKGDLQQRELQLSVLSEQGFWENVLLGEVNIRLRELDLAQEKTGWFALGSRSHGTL
Ribosomal protein S6 kinase alpha-6 (Homo sapiens), sequence (Q9UK32 whole entry): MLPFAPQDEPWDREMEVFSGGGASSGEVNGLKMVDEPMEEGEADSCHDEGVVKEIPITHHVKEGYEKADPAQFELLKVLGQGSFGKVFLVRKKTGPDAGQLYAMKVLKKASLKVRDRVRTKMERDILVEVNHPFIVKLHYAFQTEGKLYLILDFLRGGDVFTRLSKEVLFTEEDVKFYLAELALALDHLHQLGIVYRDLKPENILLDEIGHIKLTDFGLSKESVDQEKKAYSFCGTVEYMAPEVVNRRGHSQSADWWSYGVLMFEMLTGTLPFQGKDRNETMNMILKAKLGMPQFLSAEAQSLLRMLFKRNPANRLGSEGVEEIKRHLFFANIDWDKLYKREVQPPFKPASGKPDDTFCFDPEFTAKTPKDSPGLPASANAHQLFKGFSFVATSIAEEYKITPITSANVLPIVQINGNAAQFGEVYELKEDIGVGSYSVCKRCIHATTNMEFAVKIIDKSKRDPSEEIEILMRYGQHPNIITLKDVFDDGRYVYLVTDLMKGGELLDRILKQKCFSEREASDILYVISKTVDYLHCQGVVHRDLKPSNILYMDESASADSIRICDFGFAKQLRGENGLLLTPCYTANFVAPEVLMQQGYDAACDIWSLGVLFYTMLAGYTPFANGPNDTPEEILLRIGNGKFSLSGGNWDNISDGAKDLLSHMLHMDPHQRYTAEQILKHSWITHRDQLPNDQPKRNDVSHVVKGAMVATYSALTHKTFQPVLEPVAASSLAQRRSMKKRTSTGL
Mitogen-activated protein kinase 11 (Homo sapiens), sequence (Q15759 whole entry): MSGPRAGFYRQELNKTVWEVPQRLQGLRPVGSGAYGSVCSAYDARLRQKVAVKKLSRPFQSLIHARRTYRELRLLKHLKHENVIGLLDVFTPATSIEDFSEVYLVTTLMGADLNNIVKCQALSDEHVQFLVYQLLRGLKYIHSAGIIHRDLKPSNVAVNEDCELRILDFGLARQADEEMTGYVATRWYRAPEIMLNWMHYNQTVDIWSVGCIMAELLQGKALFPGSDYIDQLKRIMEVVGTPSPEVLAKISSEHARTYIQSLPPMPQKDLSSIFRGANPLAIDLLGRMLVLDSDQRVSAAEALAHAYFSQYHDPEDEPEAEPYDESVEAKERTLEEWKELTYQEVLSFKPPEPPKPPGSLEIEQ

Row | Compound | residual activity [1] [%] | residual activity [2] [%] | residual activity [3] [%] | residual activity [4] [%] | residual activity [5] [%] | pKi [6] | residual activity [7] [%] | residual activity [8] [%] | residual activity [9] [%] | residual activity [10] [%] | residual activity [11] [%] | residual activity [12] [%] | residual activity [13] [%] | residual activity [14] [%] | residual activity [15] [%] | residual activity [16] [%] | residual activity [17] [%] | residual activity [18] [%] | pKi (D(3) dopamine receptor) | residual activity [19] [%] | other results
1 | CNCc1ccccc1-c1csc([C@H](C)Nc2nc(C)nc3cc(OC)c(OC)cc23)c1 [BAY-294] | 51 | 97 | 100 | 98 | 97 | 7.16 | 98 | 100 | 100 | 100 | 100 | 100 | 100 | 100 | 73 | 100 | 100 | 95 | 6.06 | 100 | residual activity [20]: 100%; residual activity [21]: 100%; inhibition [22]: 93.5%; residual activity [23]: 90%; residual activity [24]: 89%; residual activity [25]: 100%; residual activity [26]: 100%; residual activity [27]: 100%; residual activity [28]: 100%; residual activity [29]: 87%; residual activity [30]: 100%; residual activity [31]: 95%; residual activity [32]: 100%; residual activity [33]: 91%; residual activity [34]: 100%; residual activity [35]: 100%; residual activity [36]: 100%; residual activity [37]: 92%
2 | CNCc1ccccc1-c1csc([C@@H](C)Nc2nc(C)nc3cc(OC)c(OC)cc23)c1 [BAY-293] | 57 | 80 | 85 | 80 | 88 | 6.87 | 88 | 84 | 75 | 100 | 100 | 99 | 100 | 100 | 67 | 92 | 98 | 93 | 6.03 | 99 | Ki ([6]; read-out: pKi (converted)): 110 nM; residual activity [20]: 100%; residual activity [21]: 93%; inhibition [22]: 91.7%; residual activity [23]: 97%; residual activity [24]: 100%; residual activity [25]: 100%; residual activity [26]: 92%; residual activity [27]: 100%; residual activity [28]: 98%; residual activity [29]: 86%; residual activity [30]: 100%; residual activity [31]: 98%; residual activity [32]: 86%; residual activity [33]: 88%; residual activity [34]: 86%; residual activity [35]: 99%; residual activity [36]: 100%; residual activity [37]: 75%
